Results reported in US12097184B2, “Formulations of psilocin that have enhanced stability” (priority 2021, dated 2024).
Marks after values point to notes of the source that are not given here.

Assays:
[1] = Salt screen using solutions in ethanol, appearance/colour on storage; conditions: light-protected; for Results at 18 h: ethanol solution, storage overnight at RT, Ar; for Result at 6 days: solvent removed, stored at RT under Ar, appearance after addition of EtOH
Exposure of HBr1 to AAC = format: physicochemical; conditions: AAC for two days
From the text: HBr1 was unstable upon exposure to AAC for two days and became deliquescent.

[2] = cited from earlier work
[3] = PK evaluation of psilocin and psilocybin after IV and PO administration in rats; format: in vivo, CD rats; conditions: for PK values, including Cmax and AUC and Cl: IV administration; for PK values, including Cmax and AUC and Cl / PK values, including tmax, t1/2, AUC, and bioavailability: psilocin versus psilocybin; for PK values, including tmax, t1/2, AUC, and bioavailability: PO administration
Protocol: PK Evaluation of Psilocin and Psilocybin after IV and PO Administration in Rats
(§1) The study was conducted in male/female CD rats. Test articles were formulated fresh in PBS. Psilocin and Psilocybin were administered IV and PO. Plasma samples were analyzed for psilocin and psilocybin (group 2).
(§2) FIGS. 2A-2C show PK characteristics of psilocin and psilocybin after IV dosing. FIGS. 3A-3B show PK characteristics of psilocin and psilocybin after PO dosing. FIGS. 4A-4B show psilocin and psilocybin after IV and PO dose.

[4] = protected from light, over 14 days; cited from earlier work
[5] = Analytical characterization of dosing solutions used in the PK study; format: physicochemical; conditions: after 2 hours on the bench at room temperature, PBS, depending on the concentration
Protocol: as §1, §2
After IV administration, psilocybin is detectable in plasma for 15 minutes. PO administration of psilocin and psilocybin results in similar PK values, including tmax, t1/2, AUC, and bioavailability. […] Low stability of psilocin in aqueous solutions could be a contributing factor to observed differences. […] Stabilization of psilocin provides viable, stable formulations and lower variability of dosing solutions, resulting in a better PK, such as compared to psilocybin.

[6] = HPLC solution stability and stress conditions, free base versus tartrate salt
[7] = after IV administration of psilocybin; cited from earlier work
intestinal epithelia = conditions: cited from earlier work
[8] = Analytical characterization of a psilocin tartrate sample (solid state); format: physicochemical; conditions: OM, XRPD, DSC, TGA, DVS
From the text: One sample of psilocin tartrate (lot 16782-15C) was submitted for optical microscopy (OM), X-ray powder diffraction (XRPD), differential scanning calorimetry (DSC), thermogravimetric analysis (TGA), dynamic vapor sorption/desorption (DVS), and ^1H NMR spectroscopy.

[9] = Dynamic vapor sorption/desorption (DVS) analysis; format: physicochemical
Protocol: The weight versus time and percent weight change versus percent relative humidity (RH) curves from the DVS analysis of psilocin tartrate lot 16782-15C is presented in FIGS. 13 and 14, respectively.
DVS analysis was carried out using a TA Instruments Q5000 Dynamic Vapor Sorption analyzer. The instrument was calibrated with standard weights and a sodium bromide standard for humidity. Approximately 12 mg of the powder sample was loaded into a metal-coated quartz pan for analysis. The sample was analyzed at 25° C. after being equilibrated to […] in 10% RH steps from 5 to 95% RH (adsorption cycle) and from 95 to 5% RH (desorption cycle). The movement from one step to the next occurred either after satisfying the equilibrium criterion of 0.01% weight change in 5 minutes or, if the equilibrium criterion was not met, after 90 minutes. The percent weight change values were calculated using Microsoft Excel® 2016.

## O=C1O[C@H]([C@@H](O)CO)C(O)=C1O [Ascorbic]
[1]
  Results at 18 h: 0
  Result at 6 days: C + solid

## Br.CN(C)CCc1c[nH]c2cccc(O)c12 [HBr1]
Exposure of HBr1 to AAC
  stability upon exposure to AAC: unstable

## O=C(O)CC(=O)O [Malonic]
[1]
  Results at 18 h: F ^c
  Result at 6 days: ↑C

## O=C(O)c1ccccc1O [Salicylic]
[1]
  Results at 18 h: 0
  Result at 6 days: ↑C

## O=C(O)CCC(=O)O [Succinic]
[1]
  Results at 18 h: F ^c
  Result at 6 days: ↑C

## CN(C)CCc1c[nH]c2cccc(O[C@@H]3O[C@H](C(=O)O)[C@@H](O)[C@H](O)[C@H]3O)c12 [psilocin glucuronide]
[2]; one week, whole blood at room temperature and deep frozen samples
  short-term stability compared with psilocin: better than that of psilocin
[2]; six months, deep frozen serum and urine samples
  long-term stability compared with psilocin: greater long-term stability

## CN(C)CCc1c[nH]c2cccc(O)c12 [psilocin, 4-hydroxy-N,N-dimethyltryptamine]
[2]; biological samples with addition of 25 mM ascorbic acid
  psilocin lost: greater than 5%
[3]
  PK values, including Cmax and AUC and Cl: almost identical
  PK values, including tmax, t1/2, AUC, and bioavailability: similar
[3]; both sexes, CD, rat, PO administration of psilocin, plasma psilocin, read-out: Measured Cmax
  Cmax: 153 ng/mL
[4]
  peak loss: 50%
[5]
  degradation of dosing solutions: 30%-70%
[6]; FIG. 20
  stability under a variety of stress conditions: limited stability

## CN(C)CCc1c[nH]c2cccc(OP(=O)(O)O)c12 [psilocybin, 4-phosphoryloxy-N, N-dimethyltryptamine, reference compound]
[3]
  PK values, including Cmax and AUC and Cl: almost identical
  PK values, including tmax, t1/2, AUC, and bioavailability: similar
[3]; after IV administration
  time psilocybin is detectable in plasma: 15 min
[7]
  inter-individual variability of psilocin concentrations: over 3 fold
Intestinal epithelia
  permeability: not permeable

## Adipic
[1]
  Result at 6 days: ↑C

## Fumaric
[1]
  Results at 18 h: F ^c

## L-Tartaric
[1]
  Results at 18 h: 0 ^d

## Maleic
[1]
  Results at 18 h: 0
  Result at 6 days: ↑C

## Mandelic
[1]
  Results at 18 h: 0

## Oxalic
[1]
  Results at 18 h: 0

## psilocin tartrate
[8]
  solid-state stability: stable crystalline solid
[9]
  hygroscopicity: moderately hygroscopic
[9]; 25° C.
  wt. loss upon equilibration at 5% RH: 0.12% wt. loss upon equilibration at 5% RH
[9]; 25° C., adsorption cycle
  wt. gain from 5 to 95% RH: 4.64% wt. gain from 5 to 95% RH
[9]; 25° C., desorption cycle
  wt. loss from 95 to 5% RH: 4.67% wt. loss from 95 to 5% RH
[6]; HPLC, FIG. 21
  stability in solution compared to the free base: improved stability
